Measured values taken from BindingDB's records for doi:10.1074/jbc.M112.380782 (French Alternative Energies and Atomic Energy Commission, 2012).

Assays:
Experiment in all cases: Enzyme Assay
Stromelysin-2 = Stromelysin-2 (Homo sapiens, UniProt P09238); conditions: pH 6.8; 25 °C
[1] = target: Macrophage metalloelastase (Homo sapiens, UniProt P39900); conditions: pH 6.8; 25 °C
[2] = target: Matrix metalloproteinase-9 (Homo sapiens, UniProt P14780); conditions: pH 6.8; 25 °C
[3] = target: 72 kDa type IV collagenase (Homo sapiens, UniProt P08253); conditions: pH 6.8; 25 °C
Chain of 72 kDa type IV collagenase (P08253 whole entry): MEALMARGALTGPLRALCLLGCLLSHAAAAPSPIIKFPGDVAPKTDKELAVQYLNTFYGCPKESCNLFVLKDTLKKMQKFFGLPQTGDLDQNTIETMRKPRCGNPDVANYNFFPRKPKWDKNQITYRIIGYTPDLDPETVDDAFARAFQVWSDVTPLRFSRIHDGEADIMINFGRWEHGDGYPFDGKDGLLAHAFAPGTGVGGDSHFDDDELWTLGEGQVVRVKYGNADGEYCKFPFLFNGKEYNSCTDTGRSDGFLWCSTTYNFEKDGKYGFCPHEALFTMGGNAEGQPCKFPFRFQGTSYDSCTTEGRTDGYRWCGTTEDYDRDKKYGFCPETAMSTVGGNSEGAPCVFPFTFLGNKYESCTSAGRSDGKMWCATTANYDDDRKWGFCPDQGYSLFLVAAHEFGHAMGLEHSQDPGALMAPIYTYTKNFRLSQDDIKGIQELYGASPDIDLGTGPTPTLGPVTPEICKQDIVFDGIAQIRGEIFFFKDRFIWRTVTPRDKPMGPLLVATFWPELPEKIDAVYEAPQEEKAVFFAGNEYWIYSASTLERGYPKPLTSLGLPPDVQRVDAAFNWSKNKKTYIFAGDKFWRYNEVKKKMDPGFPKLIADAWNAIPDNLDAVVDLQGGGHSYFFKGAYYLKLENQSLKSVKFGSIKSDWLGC

[4] = target: Matrix metalloproteinase-14 (Homo sapiens, UniProt P50281); conditions: pH 6.8; 25 °C
Stromelysin-1 = Stromelysin-1 (Homo sapiens, UniProt P08254); conditions: pH 6.8; 25 °C
Chain of Stromelysin-1 (P08254 whole entry): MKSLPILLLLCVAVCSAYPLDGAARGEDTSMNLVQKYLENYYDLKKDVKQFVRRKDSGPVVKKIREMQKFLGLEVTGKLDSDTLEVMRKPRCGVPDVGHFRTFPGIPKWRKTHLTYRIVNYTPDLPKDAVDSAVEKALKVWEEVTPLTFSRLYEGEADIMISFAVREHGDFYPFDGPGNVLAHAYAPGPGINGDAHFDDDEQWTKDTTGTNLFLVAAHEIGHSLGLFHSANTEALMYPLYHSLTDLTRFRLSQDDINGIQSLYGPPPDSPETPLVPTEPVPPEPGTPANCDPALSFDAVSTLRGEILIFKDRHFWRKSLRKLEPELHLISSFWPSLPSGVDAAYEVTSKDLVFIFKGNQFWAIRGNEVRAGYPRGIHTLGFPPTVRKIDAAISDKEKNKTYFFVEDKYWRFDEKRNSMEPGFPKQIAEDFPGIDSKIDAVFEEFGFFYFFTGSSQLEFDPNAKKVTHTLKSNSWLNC

[5] = target: T1, A disintegrin and metalloproteinase with thrombospondin motifs 5 (Homo sapiens, UniProt Q9UNA0); conditions: pH 6.8; 37 °C
T1 sequence (Q9UNA0 whole entry): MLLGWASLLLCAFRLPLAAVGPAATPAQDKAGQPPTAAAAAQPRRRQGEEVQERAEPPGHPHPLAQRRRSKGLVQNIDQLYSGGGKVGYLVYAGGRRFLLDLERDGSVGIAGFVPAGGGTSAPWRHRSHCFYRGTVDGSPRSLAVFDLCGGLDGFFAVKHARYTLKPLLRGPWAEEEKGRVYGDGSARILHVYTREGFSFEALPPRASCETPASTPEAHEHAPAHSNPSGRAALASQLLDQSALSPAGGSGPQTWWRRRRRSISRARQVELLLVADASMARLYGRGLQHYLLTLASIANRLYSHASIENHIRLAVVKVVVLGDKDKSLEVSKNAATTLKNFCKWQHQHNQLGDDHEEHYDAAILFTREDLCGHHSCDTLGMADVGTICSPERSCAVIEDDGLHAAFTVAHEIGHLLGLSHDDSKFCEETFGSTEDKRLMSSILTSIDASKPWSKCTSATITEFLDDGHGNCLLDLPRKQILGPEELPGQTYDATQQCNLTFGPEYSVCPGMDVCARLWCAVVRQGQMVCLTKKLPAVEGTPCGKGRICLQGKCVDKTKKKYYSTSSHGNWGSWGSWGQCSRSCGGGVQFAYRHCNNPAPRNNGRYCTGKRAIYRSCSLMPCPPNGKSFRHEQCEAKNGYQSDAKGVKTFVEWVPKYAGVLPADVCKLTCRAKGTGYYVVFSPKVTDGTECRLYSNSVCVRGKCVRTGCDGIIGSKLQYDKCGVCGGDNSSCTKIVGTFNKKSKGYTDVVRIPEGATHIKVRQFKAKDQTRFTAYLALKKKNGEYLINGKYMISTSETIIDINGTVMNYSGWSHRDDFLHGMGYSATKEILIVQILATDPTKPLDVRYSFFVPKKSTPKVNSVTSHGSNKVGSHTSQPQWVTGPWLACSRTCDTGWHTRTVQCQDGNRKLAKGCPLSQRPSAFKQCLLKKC

Neutrophil collagenase = Neutrophil collagenase (Homo sapiens, UniProt P22894); conditions: pH 6.8; 25 °C
Chain of Neutrophil collagenase (P22894 whole entry): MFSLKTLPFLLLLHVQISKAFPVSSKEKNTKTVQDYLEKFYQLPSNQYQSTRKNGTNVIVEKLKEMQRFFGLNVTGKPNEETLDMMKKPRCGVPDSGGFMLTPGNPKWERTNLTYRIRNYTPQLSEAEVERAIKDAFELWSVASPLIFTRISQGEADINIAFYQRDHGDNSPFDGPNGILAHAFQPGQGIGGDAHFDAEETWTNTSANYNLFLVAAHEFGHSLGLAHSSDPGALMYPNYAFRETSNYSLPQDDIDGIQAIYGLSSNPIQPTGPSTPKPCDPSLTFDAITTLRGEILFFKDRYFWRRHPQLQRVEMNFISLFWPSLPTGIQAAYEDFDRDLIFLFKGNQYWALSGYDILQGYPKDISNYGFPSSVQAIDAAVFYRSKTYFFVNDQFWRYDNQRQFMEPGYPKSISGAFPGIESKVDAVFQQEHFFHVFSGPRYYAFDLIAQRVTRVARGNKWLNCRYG

Collagenase 3 = Collagenase 3 (Homo sapiens, UniProt P45452); conditions: pH 6.8; 25 °C
Interstitial collagenase = target: T2, Interstitial collagenase (Homo sapiens, UniProt P03956); conditions: pH 6.8; 25 °C
T2 sequence (P03956 whole entry): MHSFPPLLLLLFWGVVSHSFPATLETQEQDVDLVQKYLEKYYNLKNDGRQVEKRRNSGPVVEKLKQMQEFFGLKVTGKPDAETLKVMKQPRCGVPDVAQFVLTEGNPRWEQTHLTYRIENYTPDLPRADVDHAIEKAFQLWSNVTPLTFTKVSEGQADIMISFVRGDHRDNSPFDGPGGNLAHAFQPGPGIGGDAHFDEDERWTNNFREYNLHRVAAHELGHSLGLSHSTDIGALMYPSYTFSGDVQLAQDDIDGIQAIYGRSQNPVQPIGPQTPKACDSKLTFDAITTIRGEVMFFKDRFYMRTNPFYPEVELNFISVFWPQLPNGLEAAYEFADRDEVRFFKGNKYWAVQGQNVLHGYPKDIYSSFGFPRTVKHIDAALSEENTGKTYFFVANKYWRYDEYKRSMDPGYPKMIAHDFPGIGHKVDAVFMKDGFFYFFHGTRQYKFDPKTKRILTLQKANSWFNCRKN

Matrilysin = target: T3, Matrilysin (Homo sapiens, UniProt P09237); conditions: pH 6.8; 25 °C
T3 sequence (P09237 whole entry): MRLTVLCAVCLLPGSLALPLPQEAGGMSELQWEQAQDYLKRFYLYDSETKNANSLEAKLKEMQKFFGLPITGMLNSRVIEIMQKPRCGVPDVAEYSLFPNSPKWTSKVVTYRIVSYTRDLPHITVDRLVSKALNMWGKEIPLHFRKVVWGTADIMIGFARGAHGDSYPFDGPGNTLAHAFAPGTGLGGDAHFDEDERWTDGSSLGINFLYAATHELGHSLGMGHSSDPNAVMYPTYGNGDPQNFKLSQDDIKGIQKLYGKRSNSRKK

[6] = target: T4, A disintegrin and metalloproteinase with thrombospondin motifs 4 (Homo sapiens, UniProt O75173); conditions: pH 6.8; 25 °C
T4 sequence (O75173 whole entry): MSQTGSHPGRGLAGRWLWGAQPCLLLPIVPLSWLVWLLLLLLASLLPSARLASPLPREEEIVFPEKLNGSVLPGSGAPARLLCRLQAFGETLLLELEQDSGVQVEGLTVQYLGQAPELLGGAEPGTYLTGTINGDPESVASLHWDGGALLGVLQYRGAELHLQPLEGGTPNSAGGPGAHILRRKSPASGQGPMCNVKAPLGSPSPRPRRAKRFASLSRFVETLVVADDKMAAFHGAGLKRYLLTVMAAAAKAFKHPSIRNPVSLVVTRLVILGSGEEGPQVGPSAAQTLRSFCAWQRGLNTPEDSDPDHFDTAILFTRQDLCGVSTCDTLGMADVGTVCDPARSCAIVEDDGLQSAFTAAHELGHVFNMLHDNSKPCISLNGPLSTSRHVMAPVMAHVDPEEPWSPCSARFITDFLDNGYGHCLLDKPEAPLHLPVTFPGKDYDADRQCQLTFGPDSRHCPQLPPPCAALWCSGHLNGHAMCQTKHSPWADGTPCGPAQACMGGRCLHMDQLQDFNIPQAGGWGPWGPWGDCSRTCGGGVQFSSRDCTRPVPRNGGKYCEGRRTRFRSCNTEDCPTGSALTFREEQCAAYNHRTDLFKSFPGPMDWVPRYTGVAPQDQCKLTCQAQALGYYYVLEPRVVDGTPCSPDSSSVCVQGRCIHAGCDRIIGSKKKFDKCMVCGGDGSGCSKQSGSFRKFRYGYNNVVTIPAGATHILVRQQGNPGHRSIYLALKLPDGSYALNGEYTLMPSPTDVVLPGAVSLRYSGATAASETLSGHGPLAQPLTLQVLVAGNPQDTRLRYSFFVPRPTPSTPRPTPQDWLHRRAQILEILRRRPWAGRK

Chain of Macrophage metalloelastase (P39900 whole entry): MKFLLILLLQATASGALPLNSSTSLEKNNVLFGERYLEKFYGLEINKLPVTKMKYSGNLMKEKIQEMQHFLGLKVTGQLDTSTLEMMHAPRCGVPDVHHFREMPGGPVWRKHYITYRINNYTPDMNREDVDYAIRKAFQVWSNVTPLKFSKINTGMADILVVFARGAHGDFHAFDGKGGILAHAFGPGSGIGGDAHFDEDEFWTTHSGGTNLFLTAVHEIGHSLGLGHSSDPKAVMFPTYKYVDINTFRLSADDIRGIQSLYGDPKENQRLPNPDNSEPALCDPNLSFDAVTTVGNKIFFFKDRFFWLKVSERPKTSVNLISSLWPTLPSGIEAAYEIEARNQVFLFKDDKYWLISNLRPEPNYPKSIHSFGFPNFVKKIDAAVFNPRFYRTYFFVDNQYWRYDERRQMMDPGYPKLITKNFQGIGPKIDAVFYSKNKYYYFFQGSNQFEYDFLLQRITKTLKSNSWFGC
Chain of Stromelysin-2 (P09238 whole entry): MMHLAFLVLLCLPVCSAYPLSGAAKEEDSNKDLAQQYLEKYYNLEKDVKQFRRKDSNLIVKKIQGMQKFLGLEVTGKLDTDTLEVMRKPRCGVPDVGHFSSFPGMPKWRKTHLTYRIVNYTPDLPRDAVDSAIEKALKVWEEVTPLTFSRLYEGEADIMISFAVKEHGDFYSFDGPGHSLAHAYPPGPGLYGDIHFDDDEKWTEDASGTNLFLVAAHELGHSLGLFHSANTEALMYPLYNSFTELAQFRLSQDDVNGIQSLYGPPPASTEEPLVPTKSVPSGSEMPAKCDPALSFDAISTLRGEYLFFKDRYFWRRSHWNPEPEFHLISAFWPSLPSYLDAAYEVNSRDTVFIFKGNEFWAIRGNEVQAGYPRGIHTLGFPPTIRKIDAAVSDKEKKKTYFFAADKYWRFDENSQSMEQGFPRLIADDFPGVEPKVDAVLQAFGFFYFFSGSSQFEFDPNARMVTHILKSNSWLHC
Chain of Matrix metalloproteinase-9 (P14780 whole entry): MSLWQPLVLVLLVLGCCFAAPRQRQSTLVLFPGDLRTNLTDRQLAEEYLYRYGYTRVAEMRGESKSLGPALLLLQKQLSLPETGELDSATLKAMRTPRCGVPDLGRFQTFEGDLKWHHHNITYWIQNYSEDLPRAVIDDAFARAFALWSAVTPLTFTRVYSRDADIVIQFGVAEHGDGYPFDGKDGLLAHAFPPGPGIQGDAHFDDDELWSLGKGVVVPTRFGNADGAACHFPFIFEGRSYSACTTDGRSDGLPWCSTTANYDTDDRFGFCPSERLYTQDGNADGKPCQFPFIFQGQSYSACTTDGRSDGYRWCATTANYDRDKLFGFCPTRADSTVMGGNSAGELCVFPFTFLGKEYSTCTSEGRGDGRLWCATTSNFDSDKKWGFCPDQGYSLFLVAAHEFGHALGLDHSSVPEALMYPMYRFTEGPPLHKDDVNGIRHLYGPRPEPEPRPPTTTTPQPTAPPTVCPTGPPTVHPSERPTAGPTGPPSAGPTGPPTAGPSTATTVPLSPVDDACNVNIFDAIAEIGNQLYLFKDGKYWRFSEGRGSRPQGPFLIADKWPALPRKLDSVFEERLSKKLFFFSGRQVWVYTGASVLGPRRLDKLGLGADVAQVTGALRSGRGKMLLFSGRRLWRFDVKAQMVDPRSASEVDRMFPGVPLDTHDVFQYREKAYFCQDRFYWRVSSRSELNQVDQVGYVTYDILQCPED

| Ki (Stromelysin-2) [µM] | Ki [1] [µM] | Ki [2] [µM] | Ki [3] [µM] | Ki [4] [µM] | Ki (Stromelysin-1) [µM] | Ki [5] [µM] | Ki (Neutrophil collagenase) [µM] | Ki (Collagenase 3) [µM] | IC50 (Collagenase 3) [µM] | IC50 (Matrilysin) [µM] | IC50 [2] [µM] | IC50 [3] [µM] | IC50 (Neutrophil collagenase) [µM] | IC50 (Interstitial collagenase) [µM] | IC50 [4] [µM] | IC50 (Stromelysin-1) [µM] | Ki [6] [µM] | Compound | Ki (Interstitial collagenase) [µM] |
| --- | --- | --- | --- | --- | --- | --- | --- | --- | --- | --- | --- | --- | --- | --- | --- | --- | --- | --- | --- |
| 0.352 | 0.0029 | 1.33 | 0.583 | > 10 | 0.329 | 0.585 | – | – | – | – | – | – | – | – | – | – | – | NC(=O)[C@H](CCC(=O)O)NC(=O)CCc1ccc(-c2ccc(-c3ccccc3)s2)cc1 [Inhibitor, 19] | – |
| 0.054 | 0.0033 | 2.19 | 0.047 | 1.05 | 0.103 | 5.8 | 0.205 | 0.018 | – | – | – | – | – | – | – | – | – | NC(=O)[C@H](CCC(=O)O)NC(=O)CCc1ccc(-c2ccc(-c3ccccc3)cc2)cc1 [Inhibitor, 18] | – |
| – | – | – | – | – | – | – | – | – | 0.0334 | – | – | – | – | – | – | – | – | O=C(NCc1ccc(F)c(Cl)c1)c1cc(C(=O)NCC23CCC(C(=O)O)(CC2)CC3)n2nccc2n1 [MMP Inhibitor, 6] | – |
| 3.11 | 0.0036 | 2.63 | – | 3.01 | 3 | 4.2 | – | – | – | – | – | – | – | – | – | – | – | NC(=O)[C@H](CCC(=O)O)NC(=O)CCc1ccc(-c2cc(-c3ccccc3)cs2)cc1 [US8691753, 105] | – |
| – | – | – | – | – | – | – | – | – | 0.046 | > 2 | > 0.3 | 0.066 | 0.037 | > 2 | > 2 | > 0.3 | – | CC(C)C(NS(=O)(=O)c1ccc2c(c1)oc1ccc(N3CCOC3=O)cc12)C(=O)O (stereo unspecified) [MMP Inhibitor, 2] | – |
| 0.39 | 0.0033 | 0.091 | 0.057 | 2.35 | 2.16 | 3.22 | 0.0053 | 0.338 | – | – | – | – | – | – | – | – | > 10 | Cc1ccc(-c2ccc(CCC(=O)N[C@@H](CCC(=O)O)C(N)=O)cc2)s1 [Inhibitor, 17] | – |
| 0.299 | 0.0025 | 2.23 | 0.127 | 0.968 | 5.82 | 0.874 | – | 0.501 | – | – | – | – | – | – | – | – | – | NC(=O)[C@H](CCC(=O)O)NC(=O)c1ccc(-c2cc(-c3ccccc3)cs2)cc1 [Inhibitor, 16] | – |

| Compound | Ki (Stromelysin-2) [µM] | Ki [1] [µM] | Ki [2] [µM] | Ki [3] [µM] | Ki [4] [µM] | Ki (Stromelysin-1) [µM] | Ki [5] [µM] | Ki (Neutrophil collagenase) [µM] | Ki (Collagenase 3) [µM] | IC50 (Collagenase 3) [µM] | IC50 (Matrilysin) [µM] | IC50 [2] [µM] | IC50 [3] [µM] | IC50 (Neutrophil collagenase) [µM] | IC50 (Interstitial collagenase) [µM] | IC50 [4] [µM] | IC50 (Stromelysin-1) [µM] | Ki [6] [µM] | Ki (Interstitial collagenase) [µM] |
| --- | --- | --- | --- | --- | --- | --- | --- | --- | --- | --- | --- | --- | --- | --- | --- | --- | --- | --- | --- |
| NC(=O)[C@@H](CCC(=O)O)NC(=O)[C@H](CCC(=O)O)NC(=O)C(Cc1cc(-c2ccc(-c3cccc(Cl)c3)cc2)no1)CP(=O)(O)c1ccc(Br)cc1 (stereo partly specified) [RXP470, Compound 4] | 0.008 | 0.0002 | > 0.1 | > 0.1 | > 0.1 | – | – | > 0.1 | – | – | – | – | – | – | – | – | – | – | > 1 |
